Laboratory results taken from ChEMBL document CHEMBL1201861, “Genomics of Drug Sensitity in Cancer screening data, Wellcome Trust Sanger Institute”.
pIC50: −log10 of the molar value.

What was measured:
COR-L105 = assay: cells; type: functional, cell-based, Homo sapiens; conditions: Homo sapiens, COR-L105
Description: SANGER: Inhibition of human COR-L105 cell growth in a cell viability assay.

Calu-1 = assay: SANGER: Inhibition of human Calu-1 cell growth in a cell viability assay.; type: functional, cell-based; conditions: Homo sapiens, Calu-1
DMS-53 = assay: cells; type: functional, cell-based, Homo sapiens; conditions: Homo sapiens, DMS-53;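 further: cell viability assay measuring growth inhibition of human DMS-53 cells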
Description: SANGER: Inhibition of human DMS-53 cell growth in a cell viability assay.

DU-145 = assay: cells; type: functional, cell-based, Homo sapiens; conditions: Homo sapiens, DU-145
Description: SANGER: Inhibition of human DU-145 cell growth in a cell viability assay.

EFE-184 = assay: cells; type: functional, cell-based, Homo sapiens; conditions: Homo sapiens, EFE-184
Description: SANGER: Inhibition of human EFE-184 cell growth in a cell viability assay.

EFM-19 = assay: cells; type: functional, cell-based, Homo sapiens; conditions: Homo sapiens, EFM-19;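 further: growth inhibition of human EFM-19 cells, measured in a cell viability assay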
Description: SANGER: Inhibition of human EFM-19 cell growth in a cell viability assay.

EW-7 = assay: SANGER: Inhibition of human EW-7 cell growth in a cell viability assay.; type: functional, cell-based; conditions: Homo sapiens, EW-7
GCT = assay: cells; type: functional, cell-based, Homo sapiens; conditions: Homo sapiens, GCT;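 further: GCT cell line proliferation inhibition, read out with a cell viability assay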
Description: SANGER: Inhibition of human GCT cell growth in a cell viability assay.

HCC1143 = assay: cells; type: functional, cell-based, Homo sapiens; conditions: Homo sapiens, HCC1143;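 further: growth inhibition of human HCC1143 cells, read out with a cell viability assay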
Description: SANGER: Inhibition of human HCC1143 cell growth in a cell viability assay.

HCT-15 = assay: cells; type: functional, cell-based, Homo sapiens; conditions: Homo sapiens, HCT-15;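 further: cell viability readout, IC50 reflecting suppression of HCT-15 cell growth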
Description: SANGER: Inhibition of human HCT-15 cell growth in a cell viability assay.

HuP-T4 = assay: cells; type: functional, cell-based, Homo sapiens; conditions: Homo sapiens, HuP-T4;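 further: cell viability assay measuring how much HuP-T4 cell growth is inhibited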
Description: SANGER: Inhibition of human HuP-T4 cell growth in a cell viability assay.

IPC-298 = assay: SANGER: Inhibition of human IPC-298 cell growth in a cell viability assay.; type: functional, cell-based; conditions: Homo sapiens, IPC-298
L-540 = assay: cells; type: functional, cell-based, Homo sapiens; conditions: Homo sapiens, L-540;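 further: growth inhibition of the human L-540 cell line, read out with a viability assay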
Description: SANGER: Inhibition of human L-540 cell growth in a cell viability assay.

LCLC-103H cell line = assay: cells; type: functional, cell-based, Homo sapiens; conditions: Homo sapiens, LCLC-103H
Description: SANGER: Inhibition of human LCLC-103H cell growth in a cell viability assay.

LOUCY = assay: cells; type: functional, cell-based, Homo sapiens; conditions: Homo sapiens, LOUCY
Description: SANGER: Inhibition of human LOUCY cell growth in a cell viability assay.

MDA-MB-468 = assay: cells; type: functional, cell-based, Homo sapiens; conditions: Homo sapiens, MDA-MB-468
Description: SANGER: Inhibition of human MDA-MB-468 cell growth in a cell viability assay.

MFE-296 = assay: SANGER: Inhibition of human MFE-296 cell growth in a cell viability assay.; type: functional, cell-based; conditions: Homo sapiens, MFE-296
NCI-H1618 = assay: cells; type: functional, cell-based, Homo sapiens; conditions: Homo sapiens, NCI-H1618;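 further: growth inhibition of human NCI-H1618 cells, measured by a cell viability assay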
Description: SANGER: Inhibition of human NCI-H1618 cell growth in a cell viability assay.

NCI-H1882 = assay: cells; type: functional, cell-based, Homo sapiens; conditions: Homo sapiens, NCI-H1882;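 further: growth inhibition of the cell line, determined with a viability assay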
Description: SANGER: Inhibition of human NCI-H1882 cell growth in a cell viability assay.

NCI-H345 = assay: cells; type: functional, cell-based, Homo sapiens; conditions: Homo sapiens, NCI-H345;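 further: growth inhibition of NCI-H345 cells measured with a cell viability assay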
Description: SANGER: Inhibition of human NCI-H345 cell growth in a cell viability assay.

NCI-H838 = assay: cells; type: functional, cell-based, Homo sapiens; conditions: Homo sapiens, NCI-H838;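 further: growth inhibition of human NCI-H838 cells, read out by a cell viability assay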
Description: SANGER: Inhibition of human NCI-H838 cell growth in a cell viability assay.

NCI-H889 = assay: cells; type: functional, cell-based, Homo sapiens; conditions: Homo sapiens, NCI-H889
Description: SANGER: Inhibition of human NCI-H889 cell growth in a cell viability assay.

SNU-16 = assay: cells; type: functional, cell-based, Homo sapiens; conditions: Homo sapiens, SNU-16;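 further: growth inhibition of human SNU-16 cells, determined with a cell viability readout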
Description: SANGER: Inhibition of human NCI-SNU-16 cell growth in a cell viability assay.

OAW-28 = assay: cells; type: functional, cell-based, Homo sapiens; conditions: Homo sapiens, OAW-28;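 further: growth inhibition of OAW-28 cells, read out with a cell viability assay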
Description: SANGER: Inhibition of human OAW-28 cell growth in a cell viability assay.

OPM-2 = assay: cells; type: functional, cell-based, Homo sapiens; conditions: Homo sapiens, OPM-2;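 further: growth of OPM-2 cells measured with a viability assay, IC50 for suppression of proliferation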
Description: SANGER: Inhibition of human OPM-2 cell growth in a cell viability assay.

Panc1005 = assay: cells; type: functional, cell-based, Homo sapiens; conditions: Homo sapiens, Panc1005;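 further: growth inhibition of human PANC-10-05 cells, measured by a cell viability assay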
Description: SANGER: Inhibition of human PANC-10-05 cell growth in a cell viability assay.

REH = assay: cells; type: functional, cell-based, Homo sapiens; conditions: Homo sapiens, REH;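 further: growth inhibition of REH cells determined with a cell viability read-out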
Description: SANGER: Inhibition of human REH cell growth in a cell viability assay.

RPMI 8402 = assay: SANGER: Inhibition of human RPMI-8402 cell growth in a cell viability assay.; type: functional, cell-based; conditions: Homo sapiens, RPMI 8402; read-out: IC50
SAS = assay: cells; type: functional, cell-based, Homo sapiens; conditions: Homo sapiens, SAS
Description: SANGER: Inhibition of human SAS cell growth in a cell viability assay.

SBC-5 = assay: cells; type: functional, cell-based, Homo sapiens; conditions: Homo sapiens, SBC-5;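 further: cell viability assay read-out, IC50 is the concentration that inhibits growth of the cells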
Description: SANGER: Inhibition of human SBC-5 cell growth in a cell viability assay.

SCC-4 = assay: cells; type: functional, cell-based, Homo sapiens; conditions: Homo sapiens, SCC-4;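 further: growth inhibition of human SCC-4 cells, read out as cell viability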
Description: SANGER: Inhibition of human SCC-4 cell growth in a cell viability assay.

SK-CO-1 = assay: cells; type: functional, cell-based, Homo sapiens; conditions: Homo sapiens, SK-CO-1;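 further: growth inhibition of SK-CO-1 cells, determined by a viability readout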
Description: SANGER: Inhibition of human SK-CO-1 cell growth in a cell viability assay.

SK-MEL-28 = assay: cells; type: functional, cell-based, Homo sapiens; conditions: Homo sapiens, SK-MEL-28;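 further: growth inhibition of human SK-MEL-28 cells, read out with a cell viability assay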
Description: SANGER: Inhibition of human SK-MEL-28 cell growth in a cell viability assay.

SNU-475 = assay: cells; type: functional, cell-based, Homo sapiens; conditions: Homo sapiens, SNU-475
Description: SANGER: Inhibition of human SNU-475 cell growth in a cell viability assay.

SW780 = assay: cells; type: functional, cell-based, Homo sapiens; conditions: Homo sapiens, SW780
Description: SANGER: Inhibition of human SW780 cell growth in a cell viability assay.

TALL-1 = assay: cells; type: functional, cell-based, Homo sapiens; conditions: Homo sapiens, TALL-1;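 further: growth inhibition of cultured human TALL-1 cells, read out by a cell viability assay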
Description: SANGER: Inhibition of human TALL-1 cell growth in a cell viability assay.

647-V = assay: cells; type: functional, cell-based, Homo sapiens; conditions: Homo sapiens, 647-V;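 further: growth inhibition of 647-V cells, read out with a cell viability assay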
Description: SANGER: Inhibition of human 647-V cell growth in a cell viability assay.

BEN = assay: cells; type: functional, cell-based, Homo sapiens; conditions: Homo sapiens, BEN;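 further: growth inhibition of the BEN cell line, read out with a cell viability assay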
Description: SANGER: Inhibition of human BEN cell growth in a cell viability assay.

UACC-62 = assay: cells; type: functional, cell-based, Homo sapiens; conditions: Homo sapiens, UACC-62;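 further: growth inhibition of human UACC-62 cells, read out by a cell viability assay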
Description: SANGER: Inhibition of human UACC-62 cell growth in a cell viability assay.

UACC-812 = assay: cells; type: functional, cell-based, Homo sapiens; conditions: Homo sapiens, UACC-812
Description: SANGER: Inhibition of human UACC-812 cell growth in a cell viability assay.

CHP-126 = assay: cells; type: functional, cell-based, Homo sapiens; conditions: Homo sapiens, CHP-126
Description: SANGER: Inhibition of human CHP-126 cell growth in a cell viability assay.

COLO 205 = assay: cells; type: functional, cell-based, Homo sapiens; conditions: Homo sapiens, COLO 205
Description: SANGER: Inhibition of human COLO-205 cell growth in a cell viability assay.

Measured: pIC50

N#Cc1c(O)c2c(-c3ccc(-c4ccccc4O)cc3)csc2[nH]c1=O
6.39: NCI-H1882
6.57: CHP-126
6.35: RPMI 8402
6.66: OPM-2
6.98: REH
7.02: LOUCY
6.07: L-540
< 5.99: all other assays above

C=C(c1ccc(C(=O)O)cc1)c1cc2c(cc1C)C(C)(C)CCC2(C)C [BEXAROTENE]
< 5.10: all assays above
